US9556228B2 (Universitaet Leipzig, priority 2011, dated 2017)
In brackets after ≈: the same amount, converted by molar mass. Peptide text beside a SMILES is read from it. * marks the point of attachment. Orn(α-tetramethylguanidino) = CN(C)C(=N[C@@H](CCCN)C(=O)*)N(C)C

Tests used:
[1] = tested on: Pseudomonas aeruginosa PAO1 (wt strain); assay type: cell-based; conditions: for Improvement over Native Sequence (SEQ No. 2) P. aeruginosa PAO1 wt: fold, from MIC in 1/8 MHB
Protocol: (§1) The minimum inhibitory concentrations (MIC) of the peptides were determined in a double assay of triplicates using a positive control sample (gentamycin) and a negative control sample (0.9% NaCl solution), according to a modified protocol from Wiegand et al. (Wiegand, 2008).
(§2) For this purpose, the peptides were dissolved in water and were diluted in a double dilution series with 1/8 MH (eight-fold diluted Mueller-Hinton-Medium—2.6 g/L, Merck) in sterile 96-well, plates (Greiner Bio-One GmbH) in twelve dilution steps from 128 μg/mL to 62.5 ng/mL. Overnight cultures were adjusted using ⅛ MHB to approximately 1.5×10^7 colony forming units per mL. Of these, 50 μL of peptide solution per well was mixed with 50 μL bacteria solution each to obtain an initial concentration of […] bacteria per well. After 20 hours of incubation at 37′C, the absorption was determined at 595 nm (microplate reader, Wallac Victor3, Perkin Elmer). The minimum inhibitory concentration was identified as the lowest peptide concentration at which no bacterial growth could be detected.
(§3) In the experiment, the antibacterial activity of the peptides according to the invention in relation to the following bacterial strains was analyzed: Pseudomonas aeruginosa PAO1 (wt strain), Pseudomonas aeruginosa DSM 9644, Staphylococcus aureus DSM 1104/ATCC 25923, Staphylococcus aureus ATCC 6247, Escherichia coli UB 1005 (F—, nalA37, metB1) and Escherichia coli ATCC25922.

[2] = tested on: Staphylococcus aureus DSM 1104/ATCC 25923; assay type: cell-based; conditions: for MIC S. aureus ATCC 25923 / MIC S. aureus DSM 1104/ATCC 25923: DSM 1104; for Improvement over Native Sequence (SEQ No. 2) S. aureus ATCC 25923: fold, from MIC in 1/8 MHB
Protocol: as §1, §2, §3

[3] = tested on: Escherichia coli UB 1005; experiment: Minimum inhibitory concentration (MIC), broth microdilution; assay type: cell-based; conditions: for MIC E. coli UB1005: 1/8 MHB, Table 4; for Improvement over Native Sequence (SEQ No. 2) E. coli UB1005: fold, from MIC in 1/8 MHB
Protocol: as §1, §2, §3

[4] = tested on: S. aureus DSM 6247; assay type: cell-based, Staphylococcus aureus
Protocol: as §1, §2, §3

[5] = tested on: Escherichia coli ATCC25922; assay type: cell-based
[6] = tested on: Pseudomonas aeruginosa DSM 9644; assay type: cell-based
Protocol: as §1
as §2, with “For this purpose, the peptides were dissolved in water and were diluted in a double dilution series with 1/8 MH (eight-fold diluted Mueller-Hinton-Medium—2.6 g/L, Merck) in sterile 96-well, plates (Greiner Bio-One GmbH) in twelve dilution steps from 128 μg/mL to 62.5 ng/mL.” left out
as §3

[7] = tested on: E. coli DSM 1103; assay type: cell-based, Escherichia coli
Protocol: as §1, §2

Row | MIC E. coli DSM 1103 [7] | SMILES | MIC P. aeruginosa PAO1 wt [1] | Improvement over Native Sequence (SEQ No. 2) P. aeruginosa PAO1 wt [1] | MIC S. aureus ATCC 25923 [2] | MIC S. aureus DSM 1104/ATCC 25923 [2] | Improvement over Native Sequence (SEQ No. 2) S. aureus ATCC 25923 [2] | MIC E. coli UB1005 [3] | Improvement over Native Sequence (SEQ No. 2) E. coli UB1005 [3] | MIC S. aureus DSM 6247 [4] | MIC E. coli ATCC 25922 [5] | MIC P. aeruginosa PAO DSM 9644 [6]
1 |  | CC[C@H](C)[C@H](NC(=O)[C@H](Cc1ccc(O)cc1)NC(=O)[C@@H](NC(=O)[C@@H]1CCCN1C(=O)[C@H](CCCNC(=N)N)NC(=O)[C@H](CC(N)=O)NC(=O)[C@H](Cc1c[nH]c2ccccc12)NC(=O)CN)C(C)C)C(=O)N1CCC[C@H]1C(=O)N[C@@H](CCCNC(=N)N)C(=O)N1CCC[C@H]1C(=O)N[C@@H](CCCNC(=N)N)C(=O)N[C@@H](CCCNC(=N)N)C(=O)N1CCC[C@H]1C(=O)N[C@@H](Cc1c[nH]cn1)C(=O)N1CCC[C@H]1C(=O)N[C@@H](CCCNC(=N)N)C(=O)N[C@@H](CC(C)C)C(N)=O [compound 50] (H-GWNRPVYIPRPRRPHPRL-NH2; N-terminus assumed) | 32 µg/mL (≈ 14.1 µM) | 16 | 2 µg/mL (≈ 0.882 µM) | 2 µg/mL (≈ 0.882 µM) | 128 | 2.5 µg/mL (≈ 1.1 µM) | 2 | 2 µg/mL (≈ 0.882 µM) | 8 µg/mL (≈ 3.53 µM) | 32 µg/mL (≈ 14.1 µM)
2 | 8 µg/mL (≈ 3.4 µM) | CC[C@H](C)[C@H](NC(=O)[C@H](Cc1ccc(O)cc1)NC(=O)[C@@H](NC(=O)[C@@H]1CCCN1C(=O)[C@H](CCCNC(=N)N)NC(=O)[C@H](CC(N)=O)NC(=O)[C@H](CC(N)=O)NC(=O)[C@H](CCCN)N=C(N(C)C)N(C)C)C(C)C)C(=O)N1CCC[C@H]1C(=O)N[C@@H](CCCNC(=N)N)C(=O)N1CCC[C@H]1C(=O)N[C@@H](CCCNC(=N)N)C(=O)N[C@@H](CCCNC(=N)N)C(=O)N1CCC[C@H]1C(=O)N[C@@H](Cc1c[nH]cn1)C(=O)N1CCC[C@H]1C(=O)N[C@@H](CCCNC(=N)N)C(=O)N[C@@H](CC(C)C)C(=O)O [compound 86] ({Orn(α-tetramethylguanidino)}-NNRPVYIPRPRRPHPRL-OH) |  |  |  |  |  |  |  | 32 µg/mL (≈ 13.6 µM) |  | 32 µg/mL (≈ 13.6 µM)
3 |  | CC[C@H](C)[C@H](NC(=O)[C@H](Cc1ccc(O)cc1)NC(=O)[C@@H](NC(=O)[C@@H]1CCCN1C(=O)[C@H](CCCNC(=N)N)NC(=O)[C@H](CC(N)=O)NC(=O)[C@H](CC(N)=O)NC(=O)CN)C(C)C)C(=O)N1CCC[C@H]1C(=O)N[C@@H](CCCNC(=N)N)C(=O)N1CCC[C@H]1C(=O)N[C@@H](CCCNC(=N)N)C(=O)N[C@@H](CCCNC(=N)N)C(=O)N1CCC[C@H]1C(=O)N[C@@H](Cc1c[nH]cn1)C(=O)N1CCC[C@H]1C(=O)N[C@@H](CCCNC(=N)N)C(=O)N[C@@H](CC(C)C)C(N)=O [compound 64] (H-GNNRPVYIPRPRRPHPRL-NH2; N-terminus assumed) | 64 µg/mL (≈ 29.2 µM) | 8 | 4 µg/mL (≈ 1.82 µM) | 4 µg/mL (≈ 1.82 µM) | 64 | 2.5 µg/mL (≈ 1.14 µM) | 2 | 2 µg/mL (≈ 0.911 µM) | 8 µg/mL (≈ 3.65 µM) | 32 µg/mL (≈ 14.6 µM)
4 |  | CC[C@H](C)[C@H](NC(=O)[C@H](Cc1ccc(O)cc1)NC(=O)[C@@H](NC(=O)[C@@H]1CCCN1C(=O)[C@H](CCCNC(=N)N)NC(=O)[C@H](CC(N)=O)NC(=O)[C@H](Cc1c[nH]c2ccccc12)NC(=O)CN)C(C)C)C(=O)N1CCC[C@H]1C(=O)N[C@@H](CCC(N)=O)C(=O)N1CCC[C@H]1C(=O)N[C@@H](CCCNC(=N)N)C(=O)N[C@@H](CCCNC(=N)N)C(=O)N1CCC[C@H]1C(=O)N[C@@H](Cc1c[nH]cn1)C(=O)N1CCC[C@H]1C(=O)N[C@@H](CCCNC(=N)N)C(=O)N[C@@H](CC(C)C)C(N)=O [compound 52] (H-GWNRPVYIPQPRRPHPRL-NH2; N-terminus assumed) | 64 µg/mL (≈ 28.6 µM) | 8 | 4 to 8 µg/mL | 4 to 8 µg/mL | 31-64 | 5 µg/mL (≈ 2.23 µM) | 1 | 2 µg/mL (≈ 0.893 µM) | 16 µg/mL (≈ 7.15 µM) | 64 µg/mL (≈ 28.6 µM)
5 | 4 µg/mL (≈ 1.71 µM) | CC[C@H](C)[C@H](NC(=O)[C@H](Cc1ccc(O)cc1)NC(=O)[C@@H](NC(=O)[C@@H]1CCCN1C(=O)[C@H](CCCNC(=N)N)NC(=O)[C@H](CC(N)=O)NC(=O)[C@H](CC(N)=O)NC(=O)[C@H](CCCN)N=C(N(C)C)N(C)C)C(C)C)C(=O)N1CCC[C@H]1C(=O)N[C@@H](CCCNC(=N)N)C(=O)N1CCC[C@H]1C(=O)N[C@@H](CCCNC(=N)N)C(=O)N1CCC[C@H]1C(=O)N1CCC[C@H]1C(=O)N[C@@H](Cc1c[nH]cn1)C(=O)N1CCC[C@H]1C(=O)N[C@@H](CCCNC(=N)N)C(=O)N[C@@H](CCCNC(=N)N)C(=O)O [compound 84] ({Orn(α-tetramethylguanidino)}-NNRPVYIPRPRPPHPRR-OH) |  |  |  |  |  |  |  | 8 µg/mL (≈ 3.43 µM) |  | 64 µg/mL (≈ 27.4 µM)
6 |  | CC[C@H](C)[C@H](NC(=O)[C@H](Cc1ccc(O)cc1)NC(=O)[C@@H](NC(=O)[C@@H]1CCCN1C(=O)[C@H](CCCNC(=N)N)NC(=O)[C@H](CC(N)=O)NC(=O)[C@H](CC(N)=O)NC(=O)CN)C(C)C)C(=O)N1CCC[C@H]1C(=O)N[C@@H](CCC(N)=O)C(=O)N1CCC[C@H]1C(=O)N[C@@H](CCCNC(=N)N)C(=O)N1CCC[C@H]1C(=O)N1CCC[C@H]1C(=O)N[C@@H](Cc1c[nH]cn1)C(=O)N1CCC[C@H]1C(=O)N[C@@H](CCCNC(=N)N)C(=O)N[C@@H](CC(C)C)C(N)=O [compound 90] (H-GNNRPVYIPQPRPPHPRL-NH2; N-terminus assumed) | 250 µg/mL (≈ 119 µM) | 2 | >125 µg/mL | >125 µg/mL |  | 1.25 µg/mL (≈ 0.593 µM) | 4 | 64 µg/mL (≈ 30.4 µM) | 2 µg/mL (≈ 0.949 µM) | 
7 |  | CC[C@H](C)[C@H](NC(=O)[C@H](Cc1ccc(O)cc1)NC(=O)[C@@H](NC(=O)[C@@H]1CCCN1C(=O)[C@H](CCCNC(=N)N)NC(=O)[C@H](CC(N)=O)NC(=O)[C@H](CC(N)=O)NC(=O)CN)C(C)C)C(=O)N1CCC[C@H]1C(=O)N[C@@H](CCC(N)=O)C(=O)N1CCC[C@H]1C(=O)N[C@@H](CCCNC(=N)N)C(=O)N1CCC[C@H]1C(=O)N1CCC[C@H]1C(=O)N[C@@H](Cc1c[nH]cn1)C(=O)N1CCC[C@H]1C(=O)N[C@@H](CCCNC(=N)N)C(=O)N[C@@H](CC(C)C)C(=O)O [compound 2] (H-GNNRPVYIPQPRPPHPRL-OH; N-terminus assumed) | 500 µg/mL (≈ 237 µM) | 1 | >125 µg/mL | >125 µg/mL | 1 | 5 µg/mL (≈ 2.37 µM) | 1 | 256 µg/mL (≈ 121 µM) | 2 µg/mL (≈ 0.949 µM) | >256 µg/mL
8 | 8 µg/mL (≈ 3.4 µM) | CC[C@H](C)[C@H](NC(=O)[C@H](Cc1ccc(O)cc1)NC(=O)[C@@H](NC(=O)[C@@H]1CCCN1C(=O)[C@H](CCCNC(=N)N)NC(=O)[C@H](CC(N)=O)NC(=O)[C@H](CC(N)=O)NC(=O)[C@H](CCCN)N=C(N(C)C)N(C)C)C(C)C)C(=O)N1CCC[C@H]1C(=O)N[C@@H](CCCNC(=N)N)C(=O)N1CCC[C@H]1C(=O)N[C@@H](CCCNC(=N)N)C(=O)N[C@@H](CCCNC(=N)N)C(=O)N1CCC[C@H]1C(=O)N[C@@H](Cc1c[nH]cn1)C(=O)N1CCC[C@H]1C(=O)N[C@@H](CCCNC(=N)N)C(=O)N[C@@H](CC(C)C)C(N)=O [compound 88] ({Orn(α-tetramethylguanidino)}-NNRPVYIPRPRRPHPRL-NH2) |  |  |  |  |  |  |  | 16 µg/mL (≈ 6.81 µM) |  | 16 µg/mL (≈ 6.81 µM)
9 |  | CC[C@H](C)[C@H](NC(=O)[C@H](Cc1ccc(O)cc1)NC(=O)[C@@H](NC(=O)[C@@H]1CCCN1C(=O)[C@H](CCCNC(=N)N)NC(=O)[C@H](CC(N)=O)NC(=O)[C@H](CCCNC(=N)N)NC(=O)CN)C(C)C)C(=O)N1CCC[C@H]1C(=O)N[C@@H](CCC(N)=O)C(=O)N1CCC[C@H]1C(=O)N[C@@H](CCCNC(=N)N)C(=O)N1CCC[C@H]1C(=O)N1CCC[C@H]1C(=O)N[C@@H](Cc1c[nH]cn1)C(=O)N1CCC[C@H]1C(=O)N[C@@H](CCCNC(=N)N)C(=O)N[C@@H](CC(C)C)C(N)=O [compound 55] (H-GRNRPVYIPQPRPPHPRL-NH2; N-terminus assumed) | 64 to 128 µg/mL | 4-8 | 32 µg/mL (≈ 14.9 µM) |  | 8 | 0.625 µg/mL (≈ 0.291 µM) | 8 |  |  | 
